Patent publication US10494412B2, “Peptides” (HOX THERAPEUTICS LIMITED, priority 2015, dated 2019)
Like-named read-outs stand apart in the source and are kept apart here. Where no end group is shown, it is not given here.

Columns and labels:
HOXB4/PBX2 dimers = target: T1, HOXB4/PBX2 dimers (Homo sapiens, UniProt P40425); test: Cell based ELISA assay for HOX/PBX binding; conditions: MDA-MB-231 cells, 4 hours, compared to DMSO, SEM, read-out: % inhibition of HOXB4/PBX2 dimer formation
T1 construct: endogenous in cells; host or cells: MDA-MB-231
T1 sequence (P40425 1-430): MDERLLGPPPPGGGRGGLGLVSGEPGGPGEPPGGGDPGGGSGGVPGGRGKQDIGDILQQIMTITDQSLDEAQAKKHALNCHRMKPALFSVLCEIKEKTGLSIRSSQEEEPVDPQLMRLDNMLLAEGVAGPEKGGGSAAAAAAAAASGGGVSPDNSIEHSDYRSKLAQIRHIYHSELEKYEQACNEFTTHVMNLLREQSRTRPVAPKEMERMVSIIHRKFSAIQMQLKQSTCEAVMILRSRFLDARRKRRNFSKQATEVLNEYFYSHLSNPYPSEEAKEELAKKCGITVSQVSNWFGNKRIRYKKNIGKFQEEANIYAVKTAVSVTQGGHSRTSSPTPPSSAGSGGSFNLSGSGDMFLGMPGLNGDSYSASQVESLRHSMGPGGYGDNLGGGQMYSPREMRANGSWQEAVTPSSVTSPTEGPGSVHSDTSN
Procedure: In order to directly assess the ability of each peptide to disrupt HOX/PBX binding a cell-based assay system was developed that could allow the formation of HOX/PBX/DNA dimers. Cultured MDA-MB-231 cells were treated with 10 μM of each peptide for 4 hours and then used to generate a cell lysate using a standard preparation method as described below. HOXB4/PBX2 dimers were then measured using an ELISA-based system as detailed in the table below. The values from this assay are expressed as % inhibition of dimer formation compared to a negative control (DMSO).
1. Collect approximately 5.0×10^7 cells by low-speed centrifugation at RT for 5 min. Carefully remove culture medium.
2. Wash the cellular debris (pellet) with PBS at RT, and collect by low-speed centrifugation. Carefully remove supernatant (total protein).
3. Add 1.0 ml of pre-cold RIPA buffer (or other appropriate buffer) with freshly added (Protease Inhibitors) and/or (Phosphatase Inhibitors). Gently resuspend cells in RIPA buffer with a pipet and incubate on ice for 30 min.
4. Further disrupt and homogenize cells by passing through a 21-gauge needle, dounce homogenization or sonication, taking care not to raise the temperature of the lysate. (Optional: Add 10 μl of 10 mg/ml PMSF stock) Incubate 30 min on ice.
5. Transfer to microcentrifuge tube(s) and centrifuge at 10,000×g for 10 min at 4° C. […]

[1] = Body weight of PC3 tumour bearing mice; assay type: in vivo; conditions: intratumoural
Procedure: PC3 cells were injected subcutaneously into female or male Balb-c nude mice aged 6 to 12 weeks (Harlan, UK). When the tumour size reached 100 mm^3 mice were injected intratumouraly with PBS, HXR9 or HTL001 at the intervals shown in FIG. 3. Mice were sacrificed when the tumour size reached 1000 mm^3 or at the end of the experiment (36 days). Tumours were then excised and immersed in 10% formalin for 24 h and processed for paraffin embedding. 5 μm slices of xenografts in paraffin blocks were made using microtome and different proteins detected by immunohistochemistry.

PC3 cells [2] = conditions: for PC3 2 hr IC50 change relative to HXR9: fold difference in IC50 relative to HXR9, 2 hr; for PC3 96 hr IC50 change relative to HXR9: fold difference in IC50 relative to HXR9, 96 hr
Procedure: (§1) The cytotoxicity of the peptides on the prostate cancer derived cell lines DU145 and PC3 was tested as previously described (Morgan et al. 2014, ibid), using the MTT assay for metabolic activity. The cytotoxic drug Docetaxel (a standard chemotherapeutic drug) was included as a positive control.
(§2) Doses are in μM (micromoles), and the mean value from 3 experiments is given along with the standard deviation.

PC3 cells [3] = test: cells; conditions: Homo sapiens, PC-3, 2 h, read-out: PC3 2 hr IC50 (±SD)
Procedure: as §1, §2

[4] = read-out: PC3 2 hr IC50 (±SD), PC3 cells, 2 hr, MTT, mean of 3 experiments ± SD
[5] = read-out: PC3 96 hr IC50 (±SD), PC3 cells, 96 hr, MTT, mean of 3 experiments ± SD

With “WYKWMKKAARRRRRRRRR [HTL001, WYKWMKKAARRRRRRRRR]” the inhibition at 10 µM (HOXB4/PBX2 dimers) was 28.2% and the “Maximum % weight loss” value [1] was 0%.
With WYKWMKKHHRRRRRRRRR [HXR9KS3] the “PC3 2 hr IC50 change relative to HXR9” value (PC3 cells [2]) was 1.53 fold, the “PC3 96 hr IC50 change relative to HXR9” value (PC3 cells [2]) was 2.53 fold and the IC50 (PC3 cells [2]; [4]) was 19 µM. The IC50 (PC3 cells [2]; [5]) was 17 µM.
For WYPWMKKAARRRRRRRRR [HXR9AS7], the “PC3 2 hr IC50 change relative to HXR9” value (PC3 cells [2]) was 0.64 fold, the “PC3 96 hr IC50 change relative to HXR9” value (PC3 cells [2]) was 1.08 fold and the IC50 (PC3 cells [2]; [4]) was 45 µM. It also gave an IC50 (PC3 cells [2]; [5]) of 40 µM.
For “WYPWMKKHHRRRRRRRRR [HXR9, WYPWMKKHHRRRRRRRRR]”, the “Maximum % weight loss” value [1] was 0%.
For WYKWMKKRRRRRRRRR [HXR9KS3noH], the “PC3 2 hr IC50 change relative to HXR9” value (PC3 cells [2]) was 1.32 fold, the “PC3 96 hr IC50 change relative to HXR9” value (PC3 cells [2]) was 2.05 fold and the IC50 (PC3 cells [2]; [4]) was 22 µM. For the same compound, the IC50 (PC3 cells [2]; [5]) was 21 µM.
For “WYPAMKKHHRRRRRRRRR [CXR9, WYPAMKKHHRRRRRRRRR]”, the IC50 (PC3 cells [2]; 2 h) was over 80 µM and the IC50 (PC3 cells [2]; 96 h) was over 80 µM.
For `CC(=O)O[C@@]12CO[C@@H]1C[C@H](O)[C@@]1(C)C(=O)[C@H](O)C3=C(C)[C@@H](OC(=O)[C@H](O)[C@@H](NC(=O)OC(C)(C)C)c4ccccc4)C[C@@](O)([C@@H](OC(=O)c4ccccc4)[C@H]21)C3(C)C` [Docetaxel], the IC50 (PC3 cells [3]) was 4 µM.
For WYPWMKKRRRRRRRRR [HXR9noH], the “PC3 2 hr IC50 change relative to HXR9” value (PC3 cells [2]) was 0.48 fold, the “PC3 96 hr IC50 change relative to HXR9” value (PC3 cells [2]) was 0.80 fold and the IC50 (PC3 cells [2]; [4]) was 60 µM. It also gave an IC50 (PC3 cells [2]; [5]) of 54 µM.
